Values quoted from earlier work, collected in US8354121B2, “Tape preparation” (Dainippon Sumitomo Pharma Co., Ltd., priority 2006, dated 2013).

Experiments:
serotonin 5-HT2 receptor = conditions: compared with haloperidol
dopamine D2 receptor = dopamine D2 receptor (Homo sapiens, UniProt P14416); conditions: compared with haloperidol
Sequence of dopamine D2 receptor (P14416 whole entry, species assumed): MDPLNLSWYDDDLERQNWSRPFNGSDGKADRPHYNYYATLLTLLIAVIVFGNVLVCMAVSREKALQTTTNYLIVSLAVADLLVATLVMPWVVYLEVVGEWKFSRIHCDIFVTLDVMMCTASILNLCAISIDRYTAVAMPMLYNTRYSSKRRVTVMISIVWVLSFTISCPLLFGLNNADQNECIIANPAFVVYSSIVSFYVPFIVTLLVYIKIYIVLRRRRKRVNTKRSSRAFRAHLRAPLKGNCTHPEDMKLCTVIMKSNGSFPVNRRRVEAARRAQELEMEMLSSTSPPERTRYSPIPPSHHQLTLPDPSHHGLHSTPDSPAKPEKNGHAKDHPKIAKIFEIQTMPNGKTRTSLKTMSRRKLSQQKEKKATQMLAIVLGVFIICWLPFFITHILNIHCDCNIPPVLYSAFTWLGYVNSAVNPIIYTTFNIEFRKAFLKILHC

For `CCN1CCN(c2cc(-c3ccc(F)cc3)c3c(n2)CCCCCC3)CC1` [Compound A, 2-(4-ethyl-1-piperazinyl)-4-(4-fluorophenyl)-5,6,7,8,9,10-hexahydrocycloocta[b]pyridine], the “affinity for serotonin 5-HT2 receptor” value (serotonin 5-HT2 receptor) is given as “higher affinity” and the “affinity for dopamine D2 receptor” value (dopamine D2 receptor) is given as “higher affinity”.
